{
  "source": "patent US20250176599A1",
  "about": "“FLAVOR COMPOSITION AND FOOD AND BEVERAGE” (TAKASAGO INTERNATIONAL CORPORATION, priority 2021, published 2025)",
  "key": {"[1]": {"test": "Sensory evaluation of aqueous solution V containing 1-octen-3-ol 10 ppb: off-flavor intensity and masking component intensity", "conditions": "1-octen-3-ol 10 ppb, average score 0-4", "how_it_was_run": "(§1)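 Degradation component dissolved in ion-exchanged water; nootkatone then added. Eight experienced panelists tasted each sample, rating off-flavor (0 not sensed to 4 strongly sensed) relative to the masker-free solution set at 4 and water at 0, and masker intensity on an absolute 0–4 scale.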"}, "[2]": {"test": "Overall conclusion of the sensory evaluation across soymilks I and II", "procedure": "(§2) To commercially available soymilk (“Delicious Unadjusted Soymilk” manufactured by Kikkoman Corporation), each degradation component was added to prepare degradation component-added soymilks at the concentrations listed in Table 23. To these degradation component-added soymilks, 1,4-dioxacycloheptadecan-5,17-dione was added at the concentrations listed in Table 23 to confirm the intensity of the off-flavor (masking effect) and the intensity of the masking components (impact on the flavor of the soymilk itself) for each sample.\nEight experienced panelists were selected to conduct a sensory evaluation similar to that of Example 1.\nThe same method as in Example 20 was used to confirm the intensity of the off-flavor (masking effect) derived from unsaturated fatty acids by α-methyl ionone and the intensity of the masking components (impact on the flavor of the soymilk itself).\nThe same method as in Example 20 was used to confirm the intensity of the off-flavor (masking effect) derived from unsaturated fatty acids by menthyl 3-hydroxybutyrate and the intensity of the masking components (impact on the flavor of the soymilk itself)."}, "[3]": {"test": "Sensory evaluation of aqueous solution IV containing 1,5-octadien-3-one 100 ppt: off-flavor intensity and masking component intensity", "conditions": "aqueous solution IV, 1,5-octadien-3-one 100 ppt, average score 0-4", "how_it_was_run": "as §1"}, "[4]": {"test": "Sensory evaluation of aqueous solution VI containing 1,5-octadien-3-ol 10 ppb: off-flavor intensity and masking component intensity", "conditions": "aqueous solution VI, 1,5-octadien-3-ol 10 ppb, average score 0-4", "how_it_was_run": "as §1"}, "[5]": {"test": "Overall conclusion of the sensory evaluation across aqueous solutions I to VI", "how_it_was_run": "as §1"}, "[6]": {"test": "Sensory evaluation of degradation component-added soymilk I ((E)-2-nonenal 5 ppb)", "conditions": "average panel score", "procedure": "as §2\n(§3) Eight experienced panelists were selected to conduct a sensory evaluation similar to that of Example 1. […]"}, "[7]": {"test": "Sensory evaluation of aqueous solution I containing (E)-2-nonenal 1 ppb: off-flavor intensity and masking component intensity", "conditions": "(E)-2-nonenal 1 ppb, average score 0-4", "how_it_was_run": "as §1"}, "[8]": {"test": "Sensory evaluation of aqueous solution III containing 1-octen-3-one 1 ppb: off-flavor intensity and masking component intensity", "conditions": "1-octen-3-one 1 ppb, average score 0-4", "how_it_was_run": "as §1"}, "[9]": {"test": "Sensory evaluation of aqueous solution II containing (E)-2-octenal 10 ppb: off-flavor intensity and masking component intensity", "conditions": "(E)-2-octenal 10 ppb, average score 0-4", "how_it_was_run": "as §1"}, "[10]": {"test": "Sensory evaluation of degradation component-added soymilk II (1-octen-3-ol 500 ppb)", "conditions": "average panel score", "procedure": "as §2, §3"}},
  "data": [
    {"smiles": "CCC(=O)/C=C/C1C(C)=CCCC1(C)C", "note": "(stereo not drawn) [α-Methyl Ionone, α-methyl ionone]", "values": [
      {"measurement": "Off-Flavor Intensity", "setting": "[1]; 0.01 ppt added", "result": 3.6, "unit": "points"},
      {"measurement": "Off-Flavor Intensity", "setting": "[1]; 0.1 ppt added", "result": 3.3, "unit": "points"},
      {"measurement": "Off-Flavor Intensity", "setting": "[1]; 1 ppb added", "result": 1.4, "unit": "points"},
      {"measurement": "Off-Flavor Intensity", "setting": "[1]; 1 ppm added", "result": 0.1, "unit": "points"},
      {"measurement": "Off-Flavor Intensity", "setting": "[1]; 1 ppt added", "result": 2.8, "unit": "points"},
      {"measurement": "Off-Flavor Intensity", "setting": "[1]; 10 ppb added", "result": 0.8, "unit": "points"},
      {"measurement": "Off-Flavor Intensity", "setting": "[1]; 10 ppt added", "result": 2.4, "unit": "points"},
      {"measurement": "Off-Flavor Intensity", "setting": "[1]; 100 ppb added", "result": 0.5, "unit": "points"},
      {"measurement": "Off-Flavor Intensity", "setting": "[1]; 100 ppt added", "result": 1.8, "unit": "points"},
      {"measurement": "concentration that masks the off-flavor and does not affect the flavor of the soymilk itself, lower limit", "setting": "[2]", "result": "≥ 100", "unit": "ppt"},
      {"measurement": "concentration that masks the off-flavor and does not affect the flavor of the soymilk itself, upper limit", "setting": "[2]", "result": "≤ 100", "unit": "ppb"},
      {"measurement": "Off-Flavor Intensity", "setting": "[3]; 0.01 ppt added", "result": 3.4, "unit": "points"},
      {"measurement": "Off-Flavor Intensity", "setting": "[3]; 0.1 ppt added", "result": 3.3, "unit": "points"},
      {"measurement": "Off-Flavor Intensity", "setting": "[3]; 1 ppb added", "result": 1.5, "unit": "points"},
      {"measurement": "Off-Flavor Intensity", "setting": "[3]; 1 ppm added", "result": 0.4, "unit": "points"},
      {"measurement": "Off-Flavor Intensity", "setting": "[3]; 1 ppt added", "result": 2.9, "unit": "points"},
      {"measurement": "Off-Flavor Intensity", "setting": "[3]; 10 ppb added", "result": 1.4, "unit": "points"},
      {"measurement": "Off-Flavor Intensity", "setting": "[3]; 10 ppt added", "result": 2.6, "unit": "points"},
      {"measurement": "Off-Flavor Intensity", "setting": "[3]; 100 ppb added", "result": 0.8, "unit": "points"},
      {"measurement": "Off-Flavor Intensity", "setting": "[3]; 100 ppt added", "result": 1.9, "unit": "points"},
      {"measurement": "Off-Flavor Intensity", "setting": "[4]; 0.01 ppt added", "result": 3.5, "unit": "points"},
      {"measurement": "Off-Flavor Intensity", "setting": "[4]; 0.1 ppt added", "result": 3.3, "unit": "points"},
      {"measurement": "Off-Flavor Intensity", "setting": "[4]; 1 ppb added", "result": 1.4, "unit": "points"},
      {"measurement": "Off-Flavor Intensity", "setting": "[4]; 1 ppm added", "result": 0.5, "unit": "points"},
      {"measurement": "Off-Flavor Intensity", "setting": "[4]; 1 ppt added", "result": 2.8, "unit": "points"},
      {"measurement": "Off-Flavor Intensity", "setting": "[4]; 10 ppb added", "result": 1.4, "unit": "points"},
      {"measurement": "Off-Flavor Intensity", "setting": "[4]; 10 ppt added", "result": 2.4, "unit": "points"},
      {"measurement": "Off-Flavor Intensity", "setting": "[4]; 100 ppb added", "result": 0.6, "unit": "points"},
      {"measurement": "Off-Flavor Intensity", "setting": "[4]; 100 ppt added", "result": 2.0, "unit": "points"},
      {"measurement": "concentration that masks the off-flavor and does not affect the flavor of the food and/or beverage itself, lower limit", "setting": "[5]", "result": "≥ 0.1", "unit": "ppt"},
      {"measurement": "concentration that masks the off-flavor and does not affect the flavor of the food and/or beverage itself, upper limit", "setting": "[5]", "result": "≤ 100", "unit": "ppb"},
      {"measurement": "Masking Component Intensity", "setting": "[6]; 1 ppb added", "result": 0.8},
      {"measurement": "Off-Flavor Intensity", "setting": "[6]; 1 ppb added", "result": 2.6},
      {"measurement": "Masking Component Intensity", "setting": "[6]; 1 ppm added", "result": 3.9},
      {"measurement": "Off-Flavor Intensity", "setting": "[6]; 1 ppm added", "result": 0.5},
      {"measurement": "Masking Component Intensity", "setting": "[6]; 10 ppb added", "result": 1.9},
      {"measurement": "Off-Flavor Intensity", "setting": "[6]; 10 ppb added", "result": 1.9},
      {"measurement": "Masking Component Intensity", "setting": "[6]; 100 ppb added", "result": 3.1},
      {"measurement": "Off-Flavor Intensity", "setting": "[6]; 100 ppb added", "result": 1.0},
      {"measurement": "Masking Component Intensity", "setting": "[6]; 100 ppt added", "result": 0.1},
      {"measurement": "Off-Flavor Intensity", "setting": "[6]; 100 ppt added", "result": 3.0},
      {"measurement": "Off-Flavor Intensity", "setting": "[7]; 0.01 ppt added", "result": 3.9, "unit": "points"},
      {"measurement": "Off-Flavor Intensity", "setting": "[7]; 0.1 ppt added", "result": 3.3, "unit": "points"},
      {"measurement": "Off-Flavor Intensity", "setting": "[7]; 1 ppb added", "result": 1.5, "unit": "points"},
      {"measurement": "Off-Flavor Intensity", "setting": "[7]; 1 ppm added", "result": 0.3, "unit": "points"},
      {"measurement": "Off-Flavor Intensity", "setting": "[7]; 1 ppt added", "result": 2.9, "unit": "points"},
      {"measurement": "Off-Flavor Intensity", "setting": "[7]; 10 ppb added", "result": 1.0, "unit": "points"},
      {"measurement": "Off-Flavor Intensity", "setting": "[7]; 10 ppt added", "result": 2.4, "unit": "points"},
      {"measurement": "Off-Flavor Intensity", "setting": "[7]; 100 ppb added", "result": 0.3, "unit": "points"},
      {"measurement": "Off-Flavor Intensity", "setting": "[7]; 100 ppt added", "result": 1.8, "unit": "points"},
      {"measurement": "Off-Flavor Intensity", "setting": "[8]; 0.01 ppt added", "result": 3.4, "unit": "points"},
      {"measurement": "Off-Flavor Intensity", "setting": "[8]; 0.1 ppt added", "result": 3.1, "unit": "points"},
      {"measurement": "Off-Flavor Intensity", "setting": "[8]; 1 ppb added", "result": 1.4, "unit": "points"},
      {"measurement": "Off-Flavor Intensity", "setting": "[8]; 1 ppm added", "result": 0.3, "unit": "points"},
      {"measurement": "Off-Flavor Intensity", "setting": "[8]; 1 ppt added", "result": 2.6, "unit": "points"},
      {"measurement": "Off-Flavor Intensity", "setting": "[8]; 10 ppb added", "result": 1.3, "unit": "points"},
      {"measurement": "Off-Flavor Intensity", "setting": "[8]; 10 ppt added", "result": 2.3, "unit": "points"},
      {"measurement": "Off-Flavor Intensity", "setting": "[8]; 100 ppb added", "result": 0.3, "unit": "points"},
      {"measurement": "Off-Flavor Intensity", "setting": "[8]; 100 ppt added", "result": 1.9, "unit": "points"},
      {"measurement": "Off-Flavor Intensity", "setting": "[9]; 0.01 ppt added", "result": 3.1, "unit": "points"},
      {"measurement": "Off-Flavor Intensity", "setting": "[9]; 0.1 ppt added", "result": 2.8, "unit": "points"},
      {"measurement": "Off-Flavor Intensity", "setting": "[9]; 1 ppb added", "result": 1.0, "unit": "points"},
      {"measurement": "Off-Flavor Intensity", "setting": "[9]; 1 ppm added", "result": 0.3, "unit": "points"},
      {"measurement": "Off-Flavor Intensity", "setting": "[9]; 1 ppt added", "result": 2.1, "unit": "points"},
      {"measurement": "Off-Flavor Intensity", "setting": "[9]; 10 ppb added", "result": 0.8, "unit": "points"},
      {"measurement": "Off-Flavor Intensity", "setting": "[9]; 10 ppt added", "result": 1.5, "unit": "points"},
      {"measurement": "Off-Flavor Intensity", "setting": "[9]; 100 ppb added", "result": 0.4, "unit": "points"},
      {"measurement": "Off-Flavor Intensity", "setting": "[9]; 100 ppt added", "result": 1.1, "unit": "points"},
      {"measurement": "Masking Component Intensity", "setting": "[10]; 1 ppb added", "result": 0.8},
      {"measurement": "Off-Flavor Intensity", "setting": "[10]; 1 ppb added", "result": 2.1},
      {"measurement": "Masking Component Intensity", "setting": "[10]; 1 ppm added", "result": 3.9},
      {"measurement": "Off-Flavor Intensity", "setting": "[10]; 1 ppm added", "result": 0.4},
      {"measurement": "Masking Component Intensity", "setting": "[10]; 10 ppb added", "result": 1.4},
      {"measurement": "Off-Flavor Intensity", "setting": "[10]; 10 ppb added", "result": 1.3},
      {"measurement": "Masking Component Intensity", "setting": "[10]; 100 ppb added", "result": 2.8},
      {"measurement": "Off-Flavor Intensity", "setting": "[10]; 100 ppb added", "result": 0.9},
      {"measurement": "Masking Component Intensity", "setting": "[10]; 100 ppt added", "result": 0.4},
      {"measurement": "Off-Flavor Intensity", "setting": "[10]; 100 ppt added", "result": 2.5}
    ]}
  ]
}
